For test [1], the target named is Receptor-type tyrosine-protein kinase FLT3 (Homo sapiens) (UniProt P36888). The conditions noted are these: at 1 µM.
The target of test [2] is Serine/threonine-protein kinase PLK2 (Homo sapiens) (UniProt Q9NYY3). The test can be described thus: Selectivity interaction (KinomeScan (DiscoverX)) EUB0000698a PLK2. The following applies: at 10 µM.
In another test the target is Focal adhesion kinase 1 (Homo sapiens, UniProt Q05397). Put plainly: Selectivity interaction (KinomeScan (DiscoverX)) EUB0000702a PTK2. The following applies: at 1 µM.
Chain of Focal adhesion kinase 1 (Q05397 2-1052 limits assumed): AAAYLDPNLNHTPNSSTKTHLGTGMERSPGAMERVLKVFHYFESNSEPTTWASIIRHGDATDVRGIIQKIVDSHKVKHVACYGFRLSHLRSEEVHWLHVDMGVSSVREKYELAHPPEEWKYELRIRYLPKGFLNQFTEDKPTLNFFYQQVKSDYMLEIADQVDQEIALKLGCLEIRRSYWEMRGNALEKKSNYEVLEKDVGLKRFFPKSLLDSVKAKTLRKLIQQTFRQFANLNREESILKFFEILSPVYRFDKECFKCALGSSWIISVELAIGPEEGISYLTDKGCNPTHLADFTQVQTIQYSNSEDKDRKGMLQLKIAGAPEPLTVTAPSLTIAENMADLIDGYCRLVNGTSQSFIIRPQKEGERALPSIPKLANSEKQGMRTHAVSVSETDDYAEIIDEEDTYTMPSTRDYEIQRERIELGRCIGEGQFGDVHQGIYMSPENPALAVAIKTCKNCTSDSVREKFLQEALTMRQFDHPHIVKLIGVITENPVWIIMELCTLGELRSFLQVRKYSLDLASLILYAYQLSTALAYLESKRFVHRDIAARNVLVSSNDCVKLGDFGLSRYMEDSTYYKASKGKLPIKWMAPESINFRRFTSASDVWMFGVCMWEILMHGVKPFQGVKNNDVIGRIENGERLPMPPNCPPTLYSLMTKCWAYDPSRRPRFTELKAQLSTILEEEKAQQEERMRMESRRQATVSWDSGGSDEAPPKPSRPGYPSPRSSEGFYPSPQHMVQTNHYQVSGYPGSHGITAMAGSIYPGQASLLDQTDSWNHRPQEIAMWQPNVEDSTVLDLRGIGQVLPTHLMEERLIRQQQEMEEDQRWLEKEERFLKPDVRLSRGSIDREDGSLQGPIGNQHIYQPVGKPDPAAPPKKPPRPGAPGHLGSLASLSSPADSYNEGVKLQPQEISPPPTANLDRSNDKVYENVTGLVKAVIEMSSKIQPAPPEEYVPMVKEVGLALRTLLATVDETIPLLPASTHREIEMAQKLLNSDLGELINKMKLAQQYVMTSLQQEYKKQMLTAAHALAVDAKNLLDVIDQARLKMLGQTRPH
In test [3] the test system is Receptor-type tyrosine-protein kinase FLT3 (Homo sapiens), P36888 [UNDEFINED MUTATION]. Put plainly: Selectivity interaction (KinomeScan (DiscoverX)) EUB0000702a FLT3. The conditions noted are these: at 1 µM.
Chain of Receptor-type tyrosine-protein kinase FLT3 (Homo sapiens), P36888 [UNDEFINED MUTATION] (P36888 whole entry, looked up, change not shown): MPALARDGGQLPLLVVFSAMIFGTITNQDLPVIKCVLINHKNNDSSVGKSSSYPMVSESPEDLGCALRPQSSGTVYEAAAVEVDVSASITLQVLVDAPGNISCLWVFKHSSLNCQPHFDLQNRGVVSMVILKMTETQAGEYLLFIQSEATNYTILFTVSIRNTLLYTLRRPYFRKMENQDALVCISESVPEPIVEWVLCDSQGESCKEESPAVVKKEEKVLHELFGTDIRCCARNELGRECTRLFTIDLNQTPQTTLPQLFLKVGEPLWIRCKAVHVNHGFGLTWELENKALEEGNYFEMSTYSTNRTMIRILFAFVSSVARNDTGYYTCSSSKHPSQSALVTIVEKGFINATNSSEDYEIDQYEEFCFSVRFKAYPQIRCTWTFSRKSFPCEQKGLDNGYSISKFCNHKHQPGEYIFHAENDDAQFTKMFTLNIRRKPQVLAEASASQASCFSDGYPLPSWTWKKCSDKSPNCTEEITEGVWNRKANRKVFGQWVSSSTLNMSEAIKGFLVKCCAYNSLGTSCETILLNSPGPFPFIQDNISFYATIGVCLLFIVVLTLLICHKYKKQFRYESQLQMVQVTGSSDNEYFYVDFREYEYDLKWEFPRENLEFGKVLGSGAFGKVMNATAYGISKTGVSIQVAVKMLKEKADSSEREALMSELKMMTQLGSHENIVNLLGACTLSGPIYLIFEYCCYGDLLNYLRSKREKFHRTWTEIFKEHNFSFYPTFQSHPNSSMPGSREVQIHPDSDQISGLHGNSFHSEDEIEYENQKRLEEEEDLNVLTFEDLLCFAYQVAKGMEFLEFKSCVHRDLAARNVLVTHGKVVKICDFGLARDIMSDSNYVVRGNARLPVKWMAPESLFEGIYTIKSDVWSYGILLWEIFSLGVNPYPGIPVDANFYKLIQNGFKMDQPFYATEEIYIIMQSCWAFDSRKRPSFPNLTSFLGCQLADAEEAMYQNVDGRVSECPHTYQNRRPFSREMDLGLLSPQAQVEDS
The target in test [4] is T1, Mitogen-activated protein kinase 12 (Homo sapiens) (UniProt P53778).
T1 sequence (whole entry): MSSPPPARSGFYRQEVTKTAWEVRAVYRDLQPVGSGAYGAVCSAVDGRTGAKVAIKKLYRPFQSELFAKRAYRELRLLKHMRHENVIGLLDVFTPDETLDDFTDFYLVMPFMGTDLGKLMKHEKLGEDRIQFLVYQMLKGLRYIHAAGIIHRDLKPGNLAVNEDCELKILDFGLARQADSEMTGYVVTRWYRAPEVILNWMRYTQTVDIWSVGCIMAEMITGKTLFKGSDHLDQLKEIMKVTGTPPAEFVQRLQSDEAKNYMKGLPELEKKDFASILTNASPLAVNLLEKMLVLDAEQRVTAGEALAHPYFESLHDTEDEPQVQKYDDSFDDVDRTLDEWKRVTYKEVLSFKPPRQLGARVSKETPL
The following applies: at 10 µM.

The structures appear in SMILES notation. Bounds are passed on as bounds.

Chain of Receptor-type tyrosine-protein kinase FLT3 (Homo sapiens) (P36888 whole entry): as the sequence (P36888 whole entry, looked up, change not shown) above
Chain of Serine/threonine-protein kinase PLK2 (Homo sapiens) (Q9NYY3 whole entry, looked up): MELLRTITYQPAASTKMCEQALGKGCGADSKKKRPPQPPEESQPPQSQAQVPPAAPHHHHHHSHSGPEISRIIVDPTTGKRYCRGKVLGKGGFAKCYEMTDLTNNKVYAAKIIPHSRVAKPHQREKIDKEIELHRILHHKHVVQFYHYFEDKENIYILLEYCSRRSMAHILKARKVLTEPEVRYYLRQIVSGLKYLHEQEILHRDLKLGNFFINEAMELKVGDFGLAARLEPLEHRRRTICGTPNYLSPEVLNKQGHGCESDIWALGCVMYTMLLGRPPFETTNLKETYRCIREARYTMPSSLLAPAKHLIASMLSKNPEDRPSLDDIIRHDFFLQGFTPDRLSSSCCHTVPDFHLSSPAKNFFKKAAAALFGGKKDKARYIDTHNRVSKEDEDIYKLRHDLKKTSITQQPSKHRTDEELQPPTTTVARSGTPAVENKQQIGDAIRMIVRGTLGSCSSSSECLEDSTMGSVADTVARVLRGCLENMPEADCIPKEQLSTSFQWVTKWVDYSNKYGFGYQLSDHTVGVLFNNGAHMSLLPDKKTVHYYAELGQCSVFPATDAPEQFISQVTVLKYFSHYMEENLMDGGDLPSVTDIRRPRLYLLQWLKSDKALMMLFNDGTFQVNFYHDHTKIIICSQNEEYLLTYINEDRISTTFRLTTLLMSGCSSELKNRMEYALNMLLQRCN

`CCOc1cn(-c2ccc(F)cc2C)nc1C(=O)Nc1ccc(Oc2ccnc3cc(OC)c(OC)cc23)c(F)c1` gave a % of control in test [1] below 10%. Regarding `COc1cc2ncn(-c3cc(OCc4ccccc4C(F)(F)F)c(C(N)=O)s3)c2cc1OC` [GW843682X], in test [2], the % of control was determined as 0.2%. For `CN(c1ccnc(CNc2nc(Nc3ccc4c(c3)CC(=O)N4)ncc2C(F)(F)F)n1)S(C)(=O)=O` [PF-00911705], the % of control is 4.9% at Focal adhesion kinase 1 and 0% in test [3]. In turn, `CC[C@@H]1C(=O)N(C)c2cnc(Nc3ccc(C(=O)NC4CCN(C)CC4)cc3OC)nc2N1C1CCCC1` yielded a % of control in test [4] of 112%.

These data come from ChEMBL document CHEMBL5212743, “Selectivity Literature for EUbOPEN Chemogenomics Library wave 3” (2023).
